Measured values published in patent US5821046A, “RNA oligonucleotides that bind HIV tat protein” (RiboTargets Holdings PLC, priority 1990, dated 1998).
“Also recorded” adds a separate entry of the source. Like-named read-outs stand apart in the source and are kept apart here. [4sT] = 4-thio-2'-deoxythymidine; [5BrU] = 5-bromo-2'-deoxyuridine; d = 2'-deoxy (DNA); r = 2'-OH (RNA)

How the values were obtained:
tat protein = assay: competition filter binding assay with chemically synthesized RNA (Table 4); parameters: species or system HIV-1; conditions: for IC50: 40 nM tat, read-out: D1/2; for competition for tat binding compared with unmodified RNA: competition filter binding, FIGS. 19, 21-24, 26; for drop in D1/2 compared with unmodified duplex: modified 17-mer + 14-mer duplex
Protocol: Competition binding reactions (0.5ml) in TK buffer (50 mM Tris.HCl(pH7.9 at 0.5M and 22° G), 20 mM KCl ) included 10nM ^32 p labeled 59-mer (ca. 20,000 cpm) , 40nM tat protein, 5 ug/ml calf thymus DNA, 2 ug/ml yeast tRNA, 40 units of RNAsin (Promega) and varying concentrations (0-300 nM) of unlabeled competitor RNA (59-mer [SEQ ID NO: 1; ], 29-mer [SEQ ID NO: 12] or preannealed (slow cooled from 90° C.) 14-mer [SEQ ID NO: 14; nucleotides 2-15] and 17-mer [SEQ ID NO: 13; nucleotides 1- 17]). Binding was allowed to take place for 2-15 minutes on ice and each reaction was filtered through a twice prewashed (0.6 ml of ice-cold TK buffer) Millipore GS filter (2.5 cm disks, 0.22 um pore) and the filter washed with TK buffer (0.6 ml). Dried filters were counted by liquid scintillation. Results were plotted on a graph (FIG. 19) showing counts retained on the filter versus the concentration of competitor RNA added.
Competition binding reactions (0.5 ml) in TK buffer included 10 nM duplex formed from ^32 P-labeled and unlabeled 29-mer (ca. 20,000 cpm) or 10 nM duplex formed from ^32 P-labeled and unlabeled 17-mer annealed to unlabeled 14-mer, 40 nM tat protein, 5 ug/ml calf thymus DNA, 2 ug/ml yeast tRNA and varying concentrations (0-120 nM) of unlabeled competitor RNA (29-mer or modified 29-mer (FIG. 21), or 17-mer +14-mer duplex or modified 7-mer +14-mer duplex (22, 23 and 24) and were carried out as described above.
Competition binding reactions (0-5 ml) in TK buffer included 10 nM duplex formed from ^32 P-labelled (ca. 20,000 cpm) and unlabelled 18-mer [SEQ ID NO: 13] annealed to unlabelled 15-mer [SEQ ID NO: 14], 40 nM tat protein, 5 ug/ml calf thymus DNA, 2 ug/ml yeast TRNA and varying concentrations (0-120 nM) of unlabelled competitor RNA (59-mer [SEQ ID NO: 1] or 18-mer [SEQ ID NO: 13]+15-mer [SEQ ID NO: 14] duplex, or modified 18-mer [SEQ ID NO: […]

HIV-1 Tat = HIV-1 Tat (Human immunodeficiency virus 1, UniProt P04608 P04608:1-86); assay: competition; D1/2; wild type 90 nM
[1] = 32P-end labelled 18-mer annealed to 15-mer
[2] = 32P-end labelled 18-mer annealed to 15-mer 10 nM, competitor 0-120 nM
[3] = relative to 14 +17 duplex, 32P-end labelled 18-mer annealed to 15-mer
[4] = 32P-end-labeled 17-mer annealed to 14-mer 10 nM, competitor 0-120 nM (dT series)
[5] = relative to 14 +17 duplex, 32P-end-labeled 17-mer annealed to 14-mer
[6] = 32P-end-labelled 29-mer 10 nM, competitor 0-120 nM
[7] = relative to 29-mer, 32P-end-labelled 29-mer 10 nM
[8] = 32P-labeled 59-mer transcript 10 nM
[9] = BrdU series, relative to 14 +17 duplex
[10] = BrdU series, 32P-end-labelled 29-mer 10 nM, competitor 0-120 nM

## 4-thioT-24: 15-mer annealed to 18-mer where U24 is replaced by 4-thio-2'-deoxythymidine (AGCCAGAUTUGAGCAGCU; sugars from the 5' end r8 d1 r9, [4sT] at 9, backbone not given here; annealed to 15-mer strand)
Tat protein; [1]
  Krel (59-mer): 0.7
Tat protein; [2]
  IC50: 25 nM
Tat protein
  competition for tat binding compared with unmodified RNA: competes for binding better than unsubstituted duplex
Tat protein; [3]
  Krel (29 or 14 +17): 2.0

## dT-24: 14-mer annealed to 17-mer where U24 is replaced by 2'-deoxythymidine (AGCCAGAUNUGAGCAGC; 2'-deoxythymidine at 24, annealed 14-mer without entry, chemistry not fully specified)
Tat protein; [4]
  IC50: 30 nM
Tat protein
  competition for tat binding compared with unmodified RNA: no effect on competition
Tat protein; listed as SEQ ID NO: 18
  competition for tat binding compared with unmodified RNA: competes for tat binding as well as unmodified duplex
Tat protein; [5]
  Krel (29 or 14 +17): 1.2

## 15 +18: duplex of unmodified 18-mer [SEQ ID NO: 13] and 15-mer [SEQ ID NO: 14] containing a U-rich bulge (chain 1 AGCCAGAUUUGAGCAGCU; chain 2 AGCUGCUCUCUGGCU; RNA, phosphodiester; duplex with U-rich bulge)
Tat protein; [1]
  Krel (59-mer): 0.3
Tat protein; [2]
  IC50: 65 nM
Tat protein
  competition for tat binding compared with unmodified RNA: competed as well as 17-mer
Tat protein; [3]
  Krel (29 or 14 +17): 0.8

## dT-23: 14-mer annealed to 17-mer where U23 is replaced by 2'-deoxythymidine (AGCCAGANUUGAGCAGC; 2'-deoxythymidine at 23, annealed 14-mer without entry, chemistry not fully specified)
Tat protein; [4]
  IC50: 35 nM
Tat protein
  competition for tat binding compared with unmodified RNA: no effect on competition
Tat protein; listed as SEQ ID NO: 17
  competition for tat binding compared with unmodified RNA: competes for tat binding as well as unmodified duplex
Tat protein; [5]
  Krel (29 or 14 +17): 1.1

## dT-25: 14-mer annealed to 17-mer where U25 is replaced by 2'-deoxythymidine (AGCCAGAUUNGAGCAGC; 2'-deoxythymidine at 25, annealed 14-mer without entry, chemistry not fully specified)
Tat protein; [4]
  IC50: 90 nM
Tat protein
  competition for tat binding compared with unmodified RNA: competes less well compared to unmodified duplex
  drop in D1/2 compared with unmodified duplex: 2-3 fold
Tat protein; [5]
  Krel (29 or 14 +17): 0.4

## 2'-OmeU-23: chemically synthesized 29-mer where U23 is replaced by 2'-O-methyluridine (GCCAGANUUGAGCCUGGGAGCUCUCUGGC; 2'-O-methyluridine at U23, chemistry not fully specified)
Tat protein; [6]
  IC50: 50 nM
Tat protein; listed as SEQ ID NO: 16
  competition for tat binding compared with unmodified RNA: competed as well as as unmodified 29-mer; also recorded: competes for tat binding as well as unmodified 29-mer
Tat protein; [7]
  Krel (29 or 14 +17): 1.2

## r(GCCAGAUUUGAGCCUGGGAGCUCUCUGGC) (RNA, backbone not given here) [29-mer, chemically synthesized 29-mer, top part of TAR including loop and U-rich bulge]
Tat protein; [6]
  IC50: 60 nM
Tat protein; [8]
  Krel (59-mer): 0.4
  increase in D1/2 compared with 59-mer: 2-3 fold
Tat protein; 32P-labeled 59-mer transcript 10 nM, competitor 0-300 nM
  IC50: 100 nM
Tat protein
  competition for tat binding compared with unmodified RNA: competes for binding to tat almost as well as a 59-mer RNA transcript
Tat protein; [7]
  Krel (29 or 14 +17): 1.0

## BrdU-23: 14-mer annealed to 17-mer where U23 is replaced by 5-bromo-2'-deoxyuridine (AGCCAGAUUUGAGCAGC; DNA at 8, [5BrU] at 8, other sugars and backbone not given here; annealed to a 14-mer strand, further chemistry not fully specified)
Tat protein; [9]
  Krel (29 or 14 +17): 0.6
Tat protein; [10]
  IC50: 70 nM
Tat protein
  competition for tat binding compared with unmodified RNA: competes for tat binding less well
  drop in D1/2 compared with unmodified duplex: 2 fold

## 4-thioT-25: 15-mer annealed to 18-mer where U25 is replaced by 4-thio-2'-deoxythymidine (AGCCAGAUUTGAGCAGCU; DNA at 10, [4sT] at 10, other sugars and backbone not given here; annealed to a 15-mer strand, further chemistry not fully specified)
Tat protein; [1]
  Krel (59-mer): 1.5
Tat protein; [2]
  IC50: 12 nM
Tat protein; listed as SEQ ID NO: 25
  competition for tat binding compared with unmodified RNA: competes for binding better than unsubstituted duplex; also recorded: competes as well as unmodified 59-mer
Tat protein; [3]
  Krel (29 or 14 +17): 4.2

## dU-23: chemically synthesized 29-mer where U23 is replaced by 2'-deoxyuridine (GCCAGANUUGAGCCUGGGAGCUCUCUGGC; 2'-deoxyuridine at 23, chemistry not fully specified)
Tat protein; [6]
  IC50: 55 nM
Tat protein; listed as SEQ ID NO: 15
  competition for tat binding compared with unmodified RNA: competed as well as as unmodified 29-mer; also recorded: competes for tat binding as well as unmodified 29-mer
Tat protein; [7]
  Krel (29 or 14 +17): 1.1

## BrdU-25: 14-mer annealed to 17-mer where U25 is replaced by 5-bromo-2'-deoxyuridine (AGCCAGAUUUGAGCAGC; sugars from the 5' end r9 d1 r7, [5BrU] at 10, backbone not given here; annealed to 14-mer strand)
Tat protein; [9]
  Krel (29 or 14 +17): 1.1
Tat protein; [10]
  IC50: 35 nM
Tat protein
  competition for tat binding compared with unmodified RNA: no effect on competition
Tat protein; listed as SEQ ID NO: 22
  competition for tat binding compared with unmodified RNA: competes for tat binding as well compared to unsubstituted duplex

## BrdU-24: 14-mer annealed to 17-mer where U24 is replaced by 5-bromo-2'-deoxyuridine (AGCCAGAUUUGAGCAGC; DNA at 9, [5BrU] at 9, other sugars and backbone not given here; annealed to a 14-mer strand, further chemistry not fully specified)
Tat protein; [9]
  Krel (29 or 14 +17): 1.0
Tat protein; [10]
  IC50: 45 nM
Tat protein
  competition for tat binding compared with unmodified RNA: no effect on competition
Tat protein; listed as SEQ ID NO: 21
  competition for tat binding compared with unmodified RNA: competes as well compared to unsubstituted duplex

B1: TAR bulge U (ssRNA)
RNA: GGGUCUCUCUGGUUAGACCAGAUGAGCCUGGGAGCUCUCUGGCUAACUAGGGAACCC
modifications: [23-25]
HIV-1 Tat
  IC50: 673 nM

B2: TAR bulge CC (ssRNA)
RNA: GGGUCUCUCUGGUUAGACCAGACCGAGCCUGGGAGCUCUCUGGCUAACUAGGGAACCC
HIV-1 Tat
  IC50: 2370 nM

B3: TAR bulge CUU (ssRNA)
RNA: GGGUCUCUCUGGUUAGACCAGACUUGAGCCUGGGAGCUCUCUGGCUAACUAGGGAACCC
modifications: [23]
HIV-1 Tat
  IC50: 630 nM

B4: TAR bulge CCU (ssRNA)
RNA: GGGUCUCUCUGGUUAGACCAGACCUGAGCCUGGGAGCUCUCUGGCUAACUAGGGAACCC
modifications: [23,24]
HIV-1 Tat
  IC50: 1330 nM

B5: TAR bulge CUC (ssRNA)
RNA: GGGUCUCUCUGGUUAGACCAGACUCGAGCCUGGGAGCUCUCUGGCUAACUAGGGAACCC
modifications: [23,25]
HIV-1 Tat
  IC50: 2140 nM

B6: TAR U40 to A40 (ssRNA)
RNA: GGGUCUCUCUGGUUAGACCAGAUUUGAGCCUGGGAGCUCACUGGCUAACUAGGGAACCC
HIV-1 Tat
  IC50: 5620 nM

B7: TAR bulge CCC (ssRNA)
RNA: GGGUCUCUCUGGUUAGACCAGACCCGAGCCUGGGAGCUCUCUGGCUAACUAGGGAACCC
modifications: [23,24,25]
HIV-1 Tat
  IC50: 1780 nM
